Like-named read-outs stand apart in the source and are kept apart here.
Experiments:
[1] = test system: HIV-1 (HTLVIIIB or HTLVIIIMN strains) in H9 cells; assay: HIV p24 antigen capture assay, acute infection of H9 cells; type: cell-based; conditions: Human immunodeficiency virus 1, H9, Expt. 1
Source text: After infection, unabsorbed virions are removed by washing.

[2] = test system: HIV-1 reverse transcriptase (RT) activity in chronically infected CEM cells; conditions: chronically infected human T lymphocytes such as CEM; general statement without data; cited from earlier work
[3] = test system: HIV-1 (HTLVIIIB) in H9 cells; assay: Long term infection assay, p24 expression in H9 cells (antigen capture); type: cell-based; conditions: for inhibition at 0.05 µM: read-out: % inhibition of p24 compared with control

Cc1cn([C@H]2C[C@H](N=[N+]=[N-])[C@@H](CO)O2)c(=O)[nH]c1=O [AZT, 3'-azido-3'-deoxythymidine]
inhibition at 0.005 µM ([1]; AZT 0.0016 μg/ml (0.005 μM)): 6% | inhibition at 0.02 µM ([1]; AZT 0.008 μg/ml (0.02 μM)): 44% | inhibition at 0.1 µM ([1]; AZT 0.04 μg/ml (0.1 μM)): 73% | inhibition at 0.6 µM ([1]; AZT 0.2 μg/ml (0.6 μM)): 90% | inhibition of HIV replication in chronically infected cells (in words) [2]: do not inhibit HIV replication

Nc1ccn([C@H]2CC[C@@H](CO)O2)c(=O)n1 [ddC, dideoxycytosine]
inhibition at 0.05 µM ([3]; Human immunodeficiency virus 1, H9, 72 h, day 3, 25mer 0.60 μM, ddC 0.05 μM): 75% | inhibition at 0.05 µM ([3]; Human immunodeficiency virus 1, H9, 168 h, day 7, 25mer 0.60 μM, ddC 0.05 μM): 94% | inhibition at 0.05 µM ([3]; Human immunodeficiency virus 1, H9, 240 h, day 10, 25mer 0.60 μM, ddC 0.05 μM): 91% | inhibition at 0.05 µM ([3]; Human immunodeficiency virus 1, H9, 336 h, day 14, 25mer 0.60 μM, ddC 0.05 μM): 56% | inhibition at 0.05 µM ([3]; Human immunodeficiency virus 1, H9, 408 h, day 17, 25mer 0.60 μM, ddC 0.05 μM): 44% | p24 expression ([3]; day 3, 25mer 0.60 μM, ddC 0.05 μM, control 489): 124 pg/mL | p24 expression (pg/ml) ([3]; day 7, 25mer 0.60 μM, ddC 0.05 μM, control 188,800): 10,800 pg/ml | p24 expression (pg/ml) ([3]; day 10, 25mer 0.60 μM, ddC 0.05 μM, control 210,400): 17,300 pg/ml | p24 expression (pg/ml) ([3]; day 14, 25mer 0.60 μM, ddC 0.05 μM, control 130,400): 60,000 pg/ml | p24 expression (pg/ml) ([3]; day 17, 25mer 0.60 μM, ddC 0.05 μM, control 95,600): 54,000 pg/ml | long term inhibition of p24 expression (in words) ([3]; long term culture, up to day 17): ineffectiveness of ddC | inhibition of HIV replication in chronically infected cells (in words) [2]: do not inhibit HIV replication
